# According to article PMC7044277 (Nature Communications, 2020):
# Several values for one entry are separate records, joined by “and”; a condition that tells them apart may be missing. Equal values may be shown once.
# Columns and labels:
# [1] = biological target: DRD2 (D2 long receptor) wild-type (Homo sapiens, UniProt P14416); assay: Radioligand competition binding, [3H]-N-methylspiperone, HEK293T membranes; conditions: DRD2; [3H]-methylspiperone (0.8-1.0 nM); read-out: Ki
# DRD3 wild-type = DRD3 wild-type (Homo sapiens, UniProt P35462); assay: Radioligand competition binding, [3H]-N-methylspiperone; conditions: DRD3 wild-type; read-out: pKi ± SEM (converted)
# Chain of DRD3 wild-type (P35462 whole entry): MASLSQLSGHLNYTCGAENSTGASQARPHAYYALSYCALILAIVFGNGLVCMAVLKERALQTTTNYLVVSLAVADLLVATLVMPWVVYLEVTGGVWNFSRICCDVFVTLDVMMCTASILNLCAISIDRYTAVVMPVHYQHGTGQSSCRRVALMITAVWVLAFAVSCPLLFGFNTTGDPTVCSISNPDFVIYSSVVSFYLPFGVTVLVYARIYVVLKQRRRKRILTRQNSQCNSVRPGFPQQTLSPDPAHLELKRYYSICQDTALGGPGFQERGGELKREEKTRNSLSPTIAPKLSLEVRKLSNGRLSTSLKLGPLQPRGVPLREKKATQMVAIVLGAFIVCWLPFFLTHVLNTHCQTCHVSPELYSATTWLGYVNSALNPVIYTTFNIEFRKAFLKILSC
# DRD3 F1063.28A = DRD3 F1063.28A (Homo sapiens, UniProt P35462, F106A); assay: biochemical; assay type: binding
# Chain of DRD3 F1063.28A (P35462 whole entry F106A): as the sequence (P35462 whole entry) above, with F106A counted along it
# DRD2 (D2 long receptor) = DRD2 (D2 long receptor) (Homo sapiens, UniProt P14416); assay: Gαi/o-mediated cAMP inhibition (GloSensor split-luciferase cAMP reporter), HEK293T; assay type: cell-based; conditions: DRD2;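 further: compounds applied 15 min at room temperature, then luciferin plus 400 nM isoproterenol to raise cAMP through endogenous β2-adrenergic receptors, luminescence read 15 min later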
# Chain of DRD2 (D2 long receptor) (P14416 whole entry): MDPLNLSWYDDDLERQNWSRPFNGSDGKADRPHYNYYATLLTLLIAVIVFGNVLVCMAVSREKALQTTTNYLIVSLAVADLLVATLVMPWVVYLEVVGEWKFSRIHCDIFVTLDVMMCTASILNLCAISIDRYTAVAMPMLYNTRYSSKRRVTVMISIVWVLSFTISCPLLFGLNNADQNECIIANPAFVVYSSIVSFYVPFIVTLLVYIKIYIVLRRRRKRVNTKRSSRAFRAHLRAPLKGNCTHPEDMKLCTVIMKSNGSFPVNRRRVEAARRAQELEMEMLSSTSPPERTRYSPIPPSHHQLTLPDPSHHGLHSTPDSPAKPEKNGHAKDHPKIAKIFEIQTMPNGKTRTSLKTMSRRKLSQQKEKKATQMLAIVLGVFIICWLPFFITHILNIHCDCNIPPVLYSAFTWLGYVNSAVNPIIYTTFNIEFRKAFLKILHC
# DRD4 (D4.4 variant) = biological target: T1, DRD4 (D4.4 variant) (Homo sapiens, UniProt P21917); assay: Gαi/o-mediated cAMP inhibition (GloSensor); assay type: cell-based; conditions: DRD4; agonist, cAMP inhibition; read-out: EC50 ± SEM
# T1 sequence (P21917 1-419): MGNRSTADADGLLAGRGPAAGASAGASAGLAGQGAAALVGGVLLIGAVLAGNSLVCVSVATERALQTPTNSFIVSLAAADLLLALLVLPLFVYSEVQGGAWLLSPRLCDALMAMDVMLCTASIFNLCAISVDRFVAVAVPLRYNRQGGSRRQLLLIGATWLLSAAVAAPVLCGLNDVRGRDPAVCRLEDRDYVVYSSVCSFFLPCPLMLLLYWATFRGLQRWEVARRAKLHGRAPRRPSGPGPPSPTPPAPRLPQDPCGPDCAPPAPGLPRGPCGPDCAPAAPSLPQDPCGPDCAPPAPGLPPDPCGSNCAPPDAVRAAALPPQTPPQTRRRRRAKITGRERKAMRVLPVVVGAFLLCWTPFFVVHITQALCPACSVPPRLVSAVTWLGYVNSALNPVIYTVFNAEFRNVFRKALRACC
# DRD2 F1103.28L = biological target: T2, DRD2 F1103.28L (Homo sapiens, UniProt P14416, F110L); assay: Gαi/o-mediated cAMP inhibition (GloSensor), mutant; assay type: cell-based
# T2 construct: expressed in transfected cells; host or cells: HEK293T (ATCC CRL-11268)
# T2 sequence (P14416 whole entry F110L): as the sequence (P14416 whole entry) above, with F110L counted along it
# DRD3 = DRD3 (Homo sapiens, UniProt P35462); assay: β-arrestin2 recruitment (Tango); assay type: cell-based
# Chain of DRD3 (P35462 whole entry): as the sequence (P35462 whole entry) above
# 5HT4 = biological target: T3, 5HT4 (Homo sapiens, UniProt Q13639); assay: β-arrestin2 recruitment (Tango); assay type: cell-based; conditions: Fig_S10n; for β-arrestin2 recruitment response in presence of serotonin (replicate values): +10μM serotonin; for β-arrestin2 recruitment response (dose-response source data, replicate values): drug alone
# T3 construct: expressed in transfected cells; host or cells: HTLA cells expressing TEV-fused β-arrestin2
# T3 sequence (Q13639 whole entry, the tested form may be a part): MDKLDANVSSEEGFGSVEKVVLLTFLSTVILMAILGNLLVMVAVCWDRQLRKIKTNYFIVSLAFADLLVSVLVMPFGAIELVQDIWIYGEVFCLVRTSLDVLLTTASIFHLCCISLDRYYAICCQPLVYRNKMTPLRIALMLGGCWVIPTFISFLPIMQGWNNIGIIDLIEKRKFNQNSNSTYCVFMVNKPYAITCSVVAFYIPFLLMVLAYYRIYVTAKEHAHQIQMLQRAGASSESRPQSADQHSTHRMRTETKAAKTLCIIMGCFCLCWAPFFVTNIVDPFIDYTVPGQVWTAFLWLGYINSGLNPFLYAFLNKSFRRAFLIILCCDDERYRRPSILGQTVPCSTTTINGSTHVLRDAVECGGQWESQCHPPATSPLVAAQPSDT
# Chain of DRD2 (D2 long receptor) wild-type (P14416 whole entry): as the sequence (P14416 whole entry) above
smiles,measurement,setting,value
CCOc1cccc2cc([C@@H](C)NCC3(O)CCCCC3)oc12 [O4RE6],Ki,[1],690 nM
same,Ki,DRD3 wild-type,115 nM
same,Ki,DRD3 F1063.28A,1050 nM
same,EC50,"DRD2 (D2 long receptor); agonist, Gαi/o-mediated cAMP inhibition, read-out: EC50 ± SEM",0.45 ± 0.05 nM
same,G protein agonist activity,DRD2 (D2 long receptor); cAMP inhibition,full agonist
same,Emax,"DRD2 (D2 long receptor); HEK-293T, read-out: Emax relative to quinpirole response, cAMP inhibition",94.5%
same,EC50,DRD4 (D4.4 variant),> 10000 nM
same,EC50,DRD2 F1103.28L; DRD2 F1103.28L (b138 head prints DRD2 F1063.28L),1.24 ± 0.75 nM
same,Emax,"DRD2 F1103.28L; read-out: Emax relative to quinpirole response, DRD2 F1103.28L",56.4%
same,β-arrestin2 recruitment agonist activity,"DRD3; DRD3, Tango",partial agonist
same,EC50,"DRD3; DRD3, Tango, read-out: EC50 ± SEM",808 ± 22 nM
same,"β-arrestin2 recruitment response at DRD3 (source data, replicate values)",DRD3; Log[Drug] -5,4.576 and 3.7 and 3.62 and 3.736 and 5.471 and 3.308 and 2.328
same,"β-arrestin2 recruitment response at DRD3 (source data, replicate values)",DRD3; Log[Drug] -5.52,3.058 and 2.935 and 3.394 and 3.834 and 3.658 and 1.004 and 1.077
same,"β-arrestin2 recruitment response at DRD3 (source data, replicate values)",DRD3; Log[Drug] -6,2.938 and 3.023 and 2.856 and 3.025 and 3.1562 and 0.3638 and 0.509
same,"β-arrestin2 recruitment response at DRD3 (source data, replicate values)",DRD3; Log[Drug] -6.52,3.396 and 2.937 and 2.899 and 3.295 and 4.17 and 0.7903 and 0.1505
same,"β-arrestin2 recruitment response at DRD3 (source data, replicate values)",DRD3; Log[Drug] -7,2.933 and 3.147 and 2.775 and 2.952 and 4.646 and 0.5125 and 2.883
same,"β-arrestin2 recruitment response at DRD3 (source data, replicate values)",DRD3; Log[Drug] -7.52,3.0214 and 3.313 and 2.803 and 3.9395 and 2.8785 and -0.1416 and 0.9462
same,"β-arrestin2 recruitment response at DRD3 (source data, replicate values)",DRD3; Log[Drug] -8,3.394 and 3.834 and 3.658 and 3.117 and 3.387 and 1.887 and -0.07348
same,"β-arrestin2 recruitment response at DRD3 (source data, replicate values)",DRD3; Log[Drug] -8.52,2.856 and 3.025 and 3.1562 and 3.299 and 3.446 and 1.2903 and 3.595
same,"β-arrestin2 recruitment response at DRD3 (source data, replicate values)",DRD3; Log[Drug] -9,2.899 and 3.295 and 4.17 and 2.956 and 3.124 and 0.2993 and 1.159
same,"β-arrestin2 recruitment response at DRD3 (source data, replicate values)",DRD3; Log[Drug] -9.52,2.775 and 2.952 and 4.646 and 3.025 and 2.94 and 0.3512 and -0.2025
same,"β-arrestin2 recruitment response at DRD3 (source data, replicate values)",DRD3; Log[Drug] -10,2.803 and 3.9395 and 2.8785 and 2.928 and 3.403 and 1.077 and 2.238
same,"β-arrestin2 recruitment response at DRD3 (source data, replicate values)",DRD3; Log[Drug] -10.52,5.884 and 3.155 and 4.6156 and 3.056 and 2.943 and 1.1541 and 0.8548
same,"β-arrestin2 recruitment response at DRD3 (source data, replicate values)",DRD3; Log[Drug] -11,3.18 and 2.961 and 3.126 and 2.927 and 2.942 and 0.5878 and 2.511
same,"β-arrestin2 recruitment response at DRD3 (source data, replicate values)",DRD3; Log[Drug] -11.52,2.6928 and 2.862 and 2.962 and 3.132 and 3.725 and -0.276 and 0.7993
same,Emax,"DRD3; read-out: Emax relative to quinpirole response, DRD3, Tango",21.4%
same,β-arrestin2 recruitment response in presence of serotonin (replicate values),5HT4; Log[Drug] -6.52,61.872
same,"β-arrestin2 recruitment response (dose-response source data, replicate values)",5HT4; Log[Drug] -6.52,1.914
same,β-arrestin2 recruitment response in presence of serotonin (replicate values),5HT4; Log[Drug] -7,64.7524 and 57.0569 and 68.7411 and 71.876 and 66.1156 and 64.7823 and 62.9846 and 72.5854 and 58.9141
same,"β-arrestin2 recruitment response (dose-response source data, replicate values)",5HT4; Log[Drug] -7,0.4762 and 0.5315 and 0.3036 and 1.47 and 0.6917 and 0.6083 and -0.2126 and 0.07923 and 0.2126
same,β-arrestin2 recruitment response in presence of serotonin (replicate values),5HT4; Log[Drug] -7.52,67.3937 and 54.3976 and 65.3292 and 58.7354 and 62.4375 and 61.2125 and 60.3264 and 67.443 and 67.076
same,"β-arrestin2 recruitment response (dose-response source data, replicate values)",5HT4; Log[Drug] -7.52,0.4824 and 0.6557 and 1.0009 and 1.276 and 0.8198 and 0.6438 and -0.1108 and 0.08408 and -0.1463
